Test results from patent US4182896A, “Indane derivatives” (Societe Hexachimie, priority 1974, dated 1980).
Structures can show the parent of a compound that is named as a salt.

Experiments:
[1] = test system: SPF male rats, OFA strain; test: Anti-inflammatory activity: paw swelling after subcutaneous plantar injection of carraghenine, oral administration; format: in vivo; details: for ED50 / ED50 (50% effective dose), anti-inflammatory: at the moment of greatest swelling of the controls; for ED50: read-out: ED50 (50% effective dose), anti-inflammatory; for inhibition in vivo at 512 mg/kg: 512 mg/kg oral; for percentage reduction in the inflammation / ED50 (50% effective dose), anti-inflammatory: rat; for ED50 (50% effective dose), anti-inflammatory: oral
Procedure: Anti-inflammatory activity
The products to be tested are administered orally to batches of 12 SPF male rats, OFA strain, weighing 120-130 g, 2 hours and 30 minutes (1/2 dose each time) before the subcutaneous plantar injection of 0.05 ml of a 1% strength solution of carraghenine. The volume of the back paw which received the phlogogenic agent is measured at regular intervals. The 50% effective dose is calculated at the moment of greatest swelling of the controls.
The results are given in Tables I to IV below, in which the percentage reduction in the inflammation is noted.

[2] = test system: male mice (SPF1, OF1 strain); test: Analgesic activity: inhibition of pain reactions (abdominal twistings) after intraperitoneal phenylbenzoquinone, oral administration; format: in vivo; details: for inhibition in vivo at 8 mg/kg / inhibition in vivo at 16 mg/kg / inhibition in vivo at 32 mg/kg / inhibition in vivo at 64 mg/kg / ED50 / inhibition in vivo at 128 mg/kg / inhibition in vivo at 256 mg/kg / inhibition in vivo at 512 mg/kg: Mus musculus, po; for inhibition in vivo at 8 mg/kg: 8 mg/kg oral; for inhibition in vivo at 8 mg/kg / inhibition in vivo at 16 mg/kg / inhibition in vivo at 32 mg/kg / inhibition in vivo at 64 mg/kg / inhibition in vivo at 128 mg/kg / inhibition in vivo at 256 mg/kg / inhibition in vivo at 512 mg/kg: read-out: percentage inhibition of pain reactions; for ED50: read-out: ED50 (50% effective dose), analgesic; for inhibition in vivo at 512 mg/kg: 512 mg/kg oral
Procedure: The products tested are administered orally to batches of 6 male mice (SPF1, OF1 strain) weighing 19-20 g.
1 hour later, 0.3 ml of a 0.02% strength solution of phenylbenzoquinone is injected intraperitoneally into each mouse and, from the 5th to the 10th minute after the latter treatment, the number of pain reactions (abdominal twistings) is counted.
Table V to VIII below give the percentage inhibition of these reactions.

[3] = Rattus norvegicus, po, 16 mg/kg oral, carraghenine, read-out: percentage reduction in the inflammation
[4] = Rattus norvegicus, po, 32 mg/kg oral, carraghenine, read-out: percentage reduction in the inflammation
[5] = Rattus norvegicus, po, 64 mg/kg oral, carraghenine, read-out: percentage reduction in the inflammation
[6] = Rattus norvegicus, po, 128 mg/kg oral, carraghenine, read-out: percentage reduction in the inflammation
[7] = Rattus norvegicus, po, 256 mg/kg oral, carraghenine, read-out: percentage reduction in the inflammation
[8] = Rattus norvegicus, po, 4 mg/kg oral, carraghenine, read-out: percentage reduction in the inflammation
[9] = Rattus norvegicus, po, carraghenine, read-out: percentage reduction in the inflammation

Compound	inhibition in vivo at 16 mg/kg [1, 3]	inhibition in vivo at 32 mg/kg [1, 4]	inhibition in vivo at 64 mg/kg [1, 5]	inhibition in vivo at 128 mg/kg [1, 6]	inhibition in vivo at 256 mg/kg [1, 7]	ED50 ([1]; Rattus norvegicus, po)	inhibition in vivo at 8 mg/kg [2]	inhibition in vivo at 16 mg/kg ([2]; 16 mg/kg oral)	inhibition in vivo at 32 mg/kg ([2]; 32 mg/kg oral)	inhibition in vivo at 64 mg/kg ([2]; 64 mg/kg oral)	ED50 [2]	inhibition in vivo at 128 mg/kg ([2]; 128 mg/kg oral)	inhibition in vivo at 256 mg/kg ([2]; 256 mg/kg oral)	other results
CCC1Cc2ccc(C(C)C(=O)OCCN3CCOCC3)cc2C1 (centres unmarked) [Example 26, Oxalate of the morpholino-ethyl ester of 2-methyl-[2-ethyl-indanyl-(5)]-acetic acid]	38%	47%	54%	68%	70%	40 mg/kg	17%	52%	69%	94%	18 mg/kg	–	–	–
CC(C(=O)O)c1ccc2c(c1)CC(C(C)C)C2 (centres unmarked) [Example 7, 2-Methyl-[2-Isopropyl-indanyl-(5)]-acetic acid]	43%	61%	73%	75%	–	22 mg/kg	17%	61%	96%	–	14 mg/kg	–	–	inhibition in vivo at 8 mg/kg ([1]; Rattus norvegicus, po, 8 mg/kg oral, carraghenine, read-out: percentage reduction in the inflammation): 29%
CC(C(=O)OCCN1CCCC1)c1ccc2c(c1)CC(C(C)C)C2 (centres unmarked) [Example 32, Maleate of the pyrrolidino-ethyl ester of 2-methyl-[2-isopropyl-indanyl-(5)]-acetic acid]	21%	–	59%	55%	–	65 mg/kg	6%	47%	79%	99%	18 mg/kg	–	–	inhibition in vivo at 4 mg/kg [1, 8]: 19%
CC1Cc2ccc(CCO)cc2C1 (stereo not drawn) [Example 35, β-[2-Methyl-indanyl-(5)]-ethanol]	43%	42%	56%	76%	89%	35 mg/kg	–	–	10%	27%	87 mg/kg	69%	95%	–
CC1(C)Cc2ccc(CC(=O)OCCN3CCOCC3)cc2C1 [Example 23, Hydrochloride of the morpholino-ethyl ester of [2,2-dimethyl-indanyl-(5)]-acetic acid]	–	9%	30%	50%	55%	140 mg/kg	1%	20%	36%	82%	–	45%	45%	inhibition in vivo at 512 mg/kg [1, 9]: 90%
CC(C(=O)OCCN1CCCCC1)c1ccc2c(c1)CC(C(C)C)C2 (centres unmarked) [Example 30, Oxalate of the piperidine-ethyl ester of 2-methyl-[2-isopropyl-indanyl-(5)]-acetic acid]	32%	–	55%	47%	52%	–	–	11%	32%	73%	37 mg/kg	99%	–	inhibition in vivo at 4 mg/kg [1, 8]: 10%
O=C(O)Cc1ccc2c(c1)CC(C1CCCCC1)C2 (centres unmarked) [Example 11, [2-Cyclohexyl-indanyl-(5)]-acetic acid]	–	4%	8%	13%	13%	> 512 mg/kg	–	–	15%	29%	140 mg/kg	58%	59%	inhibition in vivo at 512 mg/kg [1, 9]: 32%; inhibition in vivo at 512 mg/kg [2]: 83%
CC(C(=O)OCCN(C)C)c1ccc2c(c1)CC(C(C)C)C2 (centres unmarked) [Example 27, Hydrochloride of the dimethylaminoethyl ester of 2-methyl-[2-isopropyl-indanyl-(5)]-acetic acid]	54%	–	61%	64%	76%	22 mg/kg	7%	42%	69%	94%	–	99%	–	inhibition in vivo at 4 mg/kg [1, 8]: 29%
O=C(O)Cc1ccc2c(c1)CCC2C1CCCCC1 (centres unmarked) [Example 5, [1-Cyclohexyl-indanyl-(5)]-acetic acid]	–	–	–	–	–	–	–	–	–	32%	~150 mg/kg	–	58%	–
CC1Cc2ccc(CC(=O)OCCN3CCOCC3)cc2C1 (centres unmarked) [Example 21, Hydrochloride of the morpholino-ethyl ester of [2-methyl-indanyl-(5)]-acetic acid]	–	17%	25%	52%	68%	130 mg/kg	–	–	–	2%	200 mg/kg	51%	71%	inhibition in vivo at 512 mg/kg [2]: 81%
CCC(C(=O)O)c1ccc2c(c1)CC(C(C)C)C2 (centres unmarked) [Example 17, 2-Ethyl-[2-isopropyl-indanyl-(5)]-acetic acid]	13%	–	–	–	–	–	–	–	–	28%	–	–	83%	percentage reduction in the inflammation ([1]; 32 mg/kg oral, carraghenine): 24%; percentage reduction in the inflammation ([1]; 64 mg/kg oral, carraghenine): 30%; percentage reduction in the inflammation ([1]; 128 mg/kg oral, carraghenine): 38%; percentage reduction in the inflammation ([1]; 256 mg/kg oral, carraghenine): 43%; ED50 (50% effective dose), anti-inflammatory [1]: > 256 mg/kg; percentage inhibition of pain reactions ([2]; 128 mg/kg oral, mouse): 70%; inhibition in vivo at 512 mg/kg [2]: 100%; ED50 (50% effective dose), analgesic ([2]; oral, mouse): 100 mg/kg
CC1(C)Cc2ccc(CC(=O)O)cc2C1 [Example 13, [2,2-Dimethyl-indanyl-(5)]-acetic acid]	23%	29%	37%	47%	51%	200 mg/kg	–	15%	30%	71%	46 mg/kg	83%	–	–
CC(C)C1Cc2ccc(CCO)cc2C1 (stereo not drawn) [Example 37, β-[2-Isopropyl-indanyl-(5)]-ethanol]	0%	1%	21%	41%	30%	> 256 mg/kg	–	0%	40%	55%	60 mg/kg	62%	81%	–
CC(C(=O)OC(C)(C)CN(C)C)c1ccc2c(c1)CC(C(C)C)C2.O=C(O)/C=C\C(=O)O (stereo not drawn) [Example 29, Maleate of the dimethylamino-α-dimethyl-ethyl ester of 2-methyl-[2-isopropyl-indanyl-(5)]-acetic acid]	–	–	–	–	–	–	–	–	–	–	–	–	–	percentage reduction in the inflammation ([1]; 4 mg/kg oral, carraghenine): 12%; percentage reduction in the inflammation ([1]; 16 mg/kg oral, carraghenine): 35%; percentage reduction in the inflammation ([1]; 64 mg/kg oral, carraghenine): 45%; percentage reduction in the inflammation ([1]; 128 mg/kg oral, carraghenine): 72%; percentage reduction in the inflammation ([1]; 256 mg/kg oral, carraghenine): 65%; ED50 (50% effective dose), anti-inflammatory [1]: 55 mg/kg; percentage inhibition of pain reactions ([2]; 16 mg/kg oral, mouse): 8%; percentage inhibition of pain reactions ([2]; 32 mg/kg oral, mouse): 43%; percentage inhibition of pain reactions ([2]; 64 mg/kg oral, mouse): 57%; percentage inhibition of pain reactions ([2]; 128 mg/kg oral, mouse): 86%; percentage inhibition of pain reactions ([2]; 256 mg/kg oral, mouse): 96%
CC(C(=O)OCCN1CCOCC1)c1ccc2c(c1)CC(C1CCCCC1)C2 (centres unmarked) [Example 25, Hydrochloride of the morpholino-ethyl ester of 2-methyl-[2-cyclohexyl-indanyl-(5)]-acetic acid]	26%	28%	7%	12%	10%	> 256 mg/kg	–	–	19%	50%	80 mg/kg	64%	–	–
